Test system: LTP in CaMKII T286A slices
Assay: LTP induction in hippocampal slices from CaMKII T286A mutant mice
Assay type: cell-based, mouse
Conditions: 10 μM inhibitor

For `NCCNc1cccc(-c2ccnc3[nH]c4ccccc4c23)c1` [AS283], the “LTP induction in slices from T286A mutant mice” value was “enabled LTP”.

Source: patent publication US20260263429A1, “INHIBITORS OF CA 2+/CALMODULIN-DEPENDENT PROTEIN KINASE II (CAMKII) THAT DO NOT INHIBIT LONG-TERM POTENTIATION (LTP) INDUCTION AND THERAPEUTIC USES THEREOF” (The Regents of the University of Colorado, A Body Corporate, priority 2023, published 2026)
